Data as given in PubChem BioAssay (NCI).
“And” between values parts separate entries of the source, which are not always exact repeats. Equal entries are not always repeated.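 The compound was tested at five concentrations on cells cultured in 96-well plates, with a 48-hour exposure period. GI50 marks 50% less growth. TGI: total growth inhibition.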

Tests used:
Assay in all cases: inhibition of tumour cell growth, NCI panel, 48 h
[1] = test system: ACHN renal
[2] = test system: COLO 205 colon
[3] = test system: HCC-2998 colon
[4] = test system: HL-60(TB) leukemia
[5] = test system: HOP-62 NSCLC
[6] = test system: HOP-92 NSCLC
[7] = test system: HS 578T breast
[8] = test system: KM12 colon
[9] = test system: RPMI-8226 leukemia
[10] = test system: SK-OV-3 ovarian

C#Cc1cccc(Nc2ncnc3cc(NC(=O)CCl)ccc23)c1
GI50 [1]: 2.14 µM
TGI [1]: 5.66 µM
GI50 [2]: 3.62 µM
TGI [2]: 7.45 µM
GI50 [3]: 4.16 µM
TGI [3]: 8.46 µM
GI50 [4]: 4.45 µM
TGI [4]: 11.3 µM
GI50 [5]: 3.22 µM
TGI [5]: 6.77 µM
GI50 [6]: 3.56 µM
TGI [6]: 8.09 µM
GI50 [7]: 3.71 µM
TGI [7]: 14.2 µM
GI50 [8]: 3.29 µM
TGI [8]: 7.13 µM
GI50 [9]: 1.26 µM
TGI [9]: 6.15 µM
GI50 [10]: 3.5 µM
TGI [10]: 11.5 µM

CSC1=NC(=Nc2c(C)cccc2C)C2(CCC(C(C)(C)C)CC2)N1c1ccc(Cl)cc1 (centres undefined)
GI50 [1]: 8.4 µM
TGI [1]: > 100 µM
GI50 [2]: 46.4 µM
TGI [2]: > 100 µM
GI50 [3]: 92.9 µM
TGI [3]: > 100 µM
GI50 [4]: 7.94 µM
TGI [4]: > 100 µM
GI50 [5]: > 100 µM
TGI [5]: > 100 µM
GI50 [6]: 67.8 µM
TGI [6]: > 100 µM
GI50 [7]: 95.8 µM
TGI [7]: > 100 µM
GI50 [8]: 20.9 µM
TGI [8]: > 100 µM
GI50 [9]: 6.35 µM
TGI [9]: > 100 µM
GI50 [10]: > 100 µM
TGI [10]: > 100 µM

COC(=O)NC1C(C)OC(OC2C/C=C(/C)C3C=CC4C(OC5CC(OC6CCC(OC7CC(O)C(OC8CCC(O)C(C)O8)C(C)O7)C(C)O6)C(OC(C)=O)C(C)O5)C(C)CC(C)C4C3(C)/C(O)=C3/C(=O)OC4(CC(C=O)=CC(O)C4/C=C\2C)C3=O)CC1(C)[N+](=O)[O-] (centres undefined)
TGI [1]: 2.72 µM
GI50 [2]: 0.321 µM
TGI [2]: 2.71 µM and 1.08 µM
GI50 [3]: 0.208 µM
TGI [3]: 1.95 µM and 0.453 µM
GI50 [4]: 0.354 µM
TGI [4]: 4.43 µM and 2.53 µM
GI50 [5]: 0.275 µM
TGI [5]: 1.81 µM and 0.667 µM
GI50 [6]: 0.908 µM
TGI [6]: 2.69 µM and 3.32 µM
TGI [7]: 3.76 µM
GI50 [8]: 0.0714 µM
TGI [8]: 2.04 µM and 0.337 µM
GI50 [9]: 0.225 µM
TGI [9]: 5.99 µM and 0.705 µM
GI50 [10]: 2.85 µM
TGI [10]: 7.51 µM and 8.97 µM

CC(C)=CCc1cc2c(cc1O)C1=C(C(=O)C3=C(C1=O)S(=O)(=O)CCN3)C(C=C(C)C)O2 (centres undefined)
GI50 [1]: 2.27 µM
TGI [1]: 5.65 µM
GI50 [2]: 0.64 µM
TGI [2]: 2.41 µM
GI50 [3]: 1.48 µM
TGI [3]: 3.84 µM
GI50 [4]: 0.438 µM
TGI [4]: 1.11 µM
GI50 [5]: 2.33 µM
TGI [5]: 4.63 µM
GI50 [6]: 3.31 µM
TGI [6]: 7.61 µM
GI50 [7]: 1.31 µM
TGI [7]: 8.15 µM
GI50 [8]: 2.05 µM
TGI [8]: 6.99 µM
GI50 [9]: 3.38 µM
TGI [9]: 10.1 µM
GI50 [10]: 2.98 µM
TGI [10]: 5.54 µM

CN(C)c1ccc(/C=C\c2ccnc3ccccc23)cc1
GI50 [1]: 20.7 µM
TGI [1]: > 100 µM
GI50 [2]: 4.75 µM
TGI [2]: 41.5 µM
GI50 [3]: 6.04 µM
TGI [3]: > 100 µM
GI50 [4]: > 20.2 µM
TGI [4]: > 86.8 µM
GI50 [5]: 7.5 µM
TGI [5]: > 67.9 µM
GI50 [6]: 6.23 µM
TGI [6]: 60.4 µM
GI50 [7]: 13 µM
TGI [7]: > 47.9 µM
GI50 [8]: 3.66 µM
TGI [8]: 51 µM
GI50 [9]: 4.02 µM
TGI [9]: > 85 µM
GI50 [10]: 5.25 µM
TGI [10]: > 100 µM

Cc1cc(=O)oc2ccc(OC/C=C3\CCC(=O)O3)cc12
GI50 [1]: 0.936 µM
TGI [1]: 2.14 µM
GI50 [2]: 2.17 µM
TGI [2]: 7.24 µM
GI50 [3]: 14.7 µM
TGI [3]: 28.1 µM
GI50 [5]: 13.5 µM
TGI [5]: 29.9 µM
GI50 [6]: 5 µM
TGI [6]: 24.4 µM
GI50 [7]: 10.8 µM
TGI [7]: 48.9 µM
GI50 [8]: 7.76 µM
TGI [8]: 25.5 µM
GI50 [9]: 1.81 µM
TGI [9]: 11.2 µM
GI50 [10]: 13.1 µM
TGI [10]: 26.2 µM

Oc1ccc(Cl)cc1C(c1cc(Cl)ccc1O)C(Cl)(Cl)Cl
GI50 [1]: 1.76 µM
TGI [1]: 4.11 µM
GI50 [2]: 1.9 µM
TGI [2]: 3.82 µM
GI50 [3]: 1.69 µM
TGI [3]: 3.28 µM
GI50 [4]: 2.45 µM
TGI [4]: 5.13 µM
GI50 [5]: 1.7 µM
TGI [5]: 3.64 µM
GI50 [6]: 2.28 µM
TGI [6]: 5.44 µM
GI50 [7]: 1.81 µM
TGI [7]: 4.45 µM
GI50 [8]: 1.73 µM
TGI [8]: 3.34 µM
GI50 [9]: 2.72 µM
TGI [9]: 8.4 µM
GI50 [10]: 2.94 µM
TGI [10]: 9.76 µM

COc1ccc(-c2cc(=O)c3c(O)c(OC)c(OC)c(OC)c3o2)cc1OC
TGI [1]: > 100 µM
TGI [2]: > 100 µM
TGI [3]: > 100 µM
TGI [4]: > 100 µM
TGI [5]: 82.9 µM
TGI [6]: 28 µM
TGI [7]: 81.8 µM
TGI [8]: > 100 µM
TGI [10]: 81 µM

COc1ccc2c(c1)OC(N)=C(C#N)C2c1cc(OC)c(OC)c(OC)c1 (centres undefined)
GI50 [1]: 0.0691 µM
TGI [1]: > 100 µM
GI50 [2]: 0.0244 µM
TGI [2]: 0.061 µM
GI50 [3]: 0.0398 µM
TGI [3]: > 100 µM
GI50 [4]: 0.0256 µM
TGI [4]: 0.068 µM
GI50 [5]: 0.0548 µM
TGI [5]: 33.2 µM
GI50 [6]: 0.169 µM
TGI [6]: > 100 µM
GI50 [7]: 0.0408 µM
TGI [7]: > 100 µM
GI50 [9]: 0.0389 µM
TGI [9]: > 100 µM
GI50 [10]: 0.0304 µM
TGI [10]: 1.11 µM

O=C(O)C1=C/C(=C(/c2ccccc2)c2cc(C(=O)O)c(O)c3ccccc23)c2ccccc2C1=O
TGI [1]: > 100 µM
TGI [2]: > 100 µM
TGI [3]: > 100 µM
TGI [5]: > 100 µM
TGI [6]: > 100 µM
TGI [7]: > 100 µM
TGI [8]: > 100 µM
TGI [9]: > 100 µM
TGI [10]: > 100 µM

COC1=C(N)C(=O)c2nc(-c3nc(C(=O)O)c(C)c(-c4ccc(OC)c(OC)c4O)c3N)ccc2C1=O
TGI [1]: 0.00376 µM and 0.0263 µM and < 0.01 µM
GI50 [3]: 0.00121 µM and 0.00468 µM
TGI [4]: 0.00499 µM and 0.0204 µM
TGI [5]: 0.0407 µM and < 0.01 µM
GI50 [6]: 0.00666 µM and < 0.0284 µM
TGI [6]: 0.0442 µM and 0.428 µM
TGI [7]: 0.0412 µM
GI50 [9]: 0.00215 µM and 0.00924 µM and < 0.01 µM
TGI [9]: 0.00647 µM and 0.0298 µM and 0.0225 µM
TGI [10]: 0.0272 µM and 0.0174 µM

COc1cc2oc(-c3cccc(C(=O)Nc4ccc(Cl)cc4)c3)cc(=O)c2c(OC)c1OC
GI50 [1]: 3.17 µM
TGI [1]: > 100 µM
GI50 [2]: 1.47 µM
TGI [2]: 4.04 µM
GI50 [3]: 3.05 µM
TGI [3]: > 100 µM
GI50 [5]: 2.66 µM
TGI [5]: 9.89 µM
GI50 [6]: 1.46 µM
TGI [6]: 5.58 µM
GI50 [7]: 2.95 µM
TGI [7]: > 100 µM
GI50 [8]: 2.37 µM
TGI [8]: > 100 µM
GI50 [9]: 0.49 µM
TGI [9]: 3.79 µM
GI50 [10]: 3.41 µM
TGI [10]: > 100 µM

O=C1CC2OCC=C3CN4CCC56c7ccccc7N1C5C2C3CC46O (centres undefined)
TGI [1]: > 100 µM
TGI [2]: > 100 µM
TGI [3]: > 100 µM
TGI [4]: > 100 µM
TGI [6]: > 100 µM
TGI [7]: > 100 µM
TGI [8]: > 100 µM
TGI [9]: > 100 µM
TGI [10]: > 100 µM
